From ChEMBL document CHEMBL1201862, “PubChem BioAssay data set” (2004) come the findings set out here.

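Assay format: 96-well plates, 48-hour exposure. GI50: concentration for 50% inhibition of growth.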 Calls of active or inactive are those of the source. No stated cut-off is given here; in the data, active = GI50 up to about 1.1 µM and inactive = higher. A value given as a limit tells only on which side of the number the result lay.

Among the test systems are A549; CCRF-CEM; EKVX; HCT-116; HCT-15; Hs-578T; LOX IMVI; M19-MEL; MCF7; MDA-MB-231; MDA-MB-435; MOLT-4; RPMI-8226; RXF 393; SF-539; SK-MEL-2; SK-OV-3; SNB-75; UACC-257; UACC-62.
What all share (assay): NCI tumour cell line growth inhibition, 48 h

Turning to `CCCCNCC(=O)O[C@]1(CC)C(=O)OCc2c1cc1n(c2=O)Cc2cc3ccccc3nc2-1`, the GI50 in the assay on A549 is 0.185 µM (active); in the assay with CCRF-CEM it was 0.0127 µM (active); in the assay with EKVX, 2.98 µM (inactive); with HCT-116, 0.407 µM (active); in the assay with HCT-15, 2.15 µM; in the assay with Hs-578T it was 31.9 µM (inactive). For the same compound, the GI50 in the assay with LOX IMVI was 0.0721 µM (active); in the assay on M19-MEL it was 0.63 µM (active); with MCF7 it was 0.0998 µM (active); in the assay on MDA-MB-231, 29.9 µM (inactive); in the assay on MDA-MB-435, 1.57 µM (inactive); in the assay on MOLT-4, 0.017 µM (active). The GI50 in the assay on RPMI-8226 is 0.385 µM (active); in the assay with RXF 393 it was 0.385 µM (active); in the assay on SF-539, 0.0832 µM (active); in the assay on SK-MEL-2, 3.14 µM (inactive); with SK-OV-3, 0.658 µM (active); with SNB-75 it was 0.098 µM (active). For the same compound, the GI50 was 0.646 µM (active) in the assay on UACC-257 and 0.0578 µM (active) in the assay with UACC-62.
As for `O=C1NC(Cc2ccc(O)cc2)C(=O)N2CCCC12` (stereo not given), the GI50 was > 100 µM (inactive) with A549; > 100 µM (inactive) in the assay with CCRF-CEM; > 100 µM (inactive) in the assay with EKVX; > 100 µM (inactive) in the assay on HCT-116; > 100 µM in the assay with HCT-15; > 100 µM (inactive) with LOX IMVI. The GI50 with M19-MEL, in the assay with MOLT-4, with RPMI-8226, in the assay on RXF 393, in the assay with SF-539 and in the assay with SK-MEL-2 was > 100 µM (inactive) throughout. Besides, the GI50 in the assay on SK-OV-3, in the assay on SNB-75, with UACC-257 and with UACC-62 was > 100 µM (inactive) throughout.
For `CCOc1ccc(/C(C=O)=C(\Cl)c2ccc(OC)cc2)cc1`, the GI50 was 18.2 µM (inactive) with A549; 5.24 µM (inactive) with CCRF-CEM; > 52 µM (inactive) with EKVX; > 83.8 µM (inactive) in the assay on HCT-116; 28.6 µM with HCT-15; 34.4 µM (inactive) with Hs-578T. Besides, the GI50 with LOX IMVI was 14.2 µM (inactive); in the assay with M19-MEL, > 100 µM (inactive); in the assay on MCF7, > 100 µM (inactive); with MDA-MB-231, > 100 µM (inactive); in the assay with MDA-MB-435, 9.4 µM (inactive); in the assay on MOLT-4, 5.48 µM (inactive). Further, the GI50 in the assay on RPMI-8226 is 5.73 µM (inactive); with RXF 393 it was > 100 µM (inactive); with SF-539 it was > 100 µM (inactive); in the assay with SK-MEL-2, > 100 µM (inactive); with SK-OV-3, > 100 µM (inactive); with SNB-75 it was 36.6 µM (inactive). Also, the GI50 in the assay on UACC-257 is 9.35 µM (inactive); in the assay on UACC-62, > 51.9 µM (inactive).
`CCCCCCCCC[C@@H]1CC(=O)OCC2OC(O[C@H](CCCCCCCCC)CC(=O)OCC3OC(O[C@H](CCCCCCCCC)CC(=O)OCC4OC(O1)C(O)C(O)C4O)C(O)C(O)C3O)C(O)C(O)C2O` (stereo not given in full): the GI50 in the assay on A549 was 14.7 µM (inactive); with CCRF-CEM it was 5.79 µM (inactive); in the assay on EKVX, 12 µM (inactive); in the assay with HCT-116 it was 8.18 µM (inactive); in the assay on HCT-15, 5.43 µM; in the assay on LOX IMVI, 3.52 µM (inactive). For the same compound, the GI50 in the assay with M19-MEL is 4.42 µM (inactive); with MOLT-4 it was 6.22 µM (inactive); in the assay on RPMI-8226, 14.5 µM (inactive); in the assay with RXF 393, 17 µM (inactive); with SF-539, 10.3 µM (inactive); in the assay with SK-MEL-2, 8.67 µM (inactive). Further, the GI50 in the assay with SK-OV-3 was 13.4 µM (inactive); with SNB-75 it was 9.27 µM (inactive); in the assay with UACC-257, 10.8 µM (inactive); in the assay on UACC-62 it was 14.9 µM (inactive).
Turning to `CCCC(=O)N[C@H]1C2C3CC4C5CC(C42)C1(C)C53` (stereo not given in full), the GI50 in the assay on A549 is > 100 µM (inactive); in the assay with CCRF-CEM it was > 100 µM (inactive); with EKVX, > 100 µM (inactive); in the assay on HCT-116, > 100 µM (inactive); with HCT-15 it was > 100 µM; with LOX IMVI, > 100 µM (inactive). The GI50 in the assay with M19-MEL, in the assay with MOLT-4, in the assay on RPMI-8226, in the assay on RXF 393, in the assay on SF-539 and in the assay on SK-MEL-2 was > 100 µM (inactive) each time. In addition, the GI50 in the assay with SK-OV-3, in the assay with SNB-75, with UACC-257 and in the assay with UACC-62 was > 100 µM (inactive) in each case.
In the case of `CCOC(=O)Nc1ccc2c(c1)N(C(=O)CCN(CC)CC)c1ccccc1S2` [ETHACIZINE], the GI50 with A549 is 34.3 µM (inactive); in the assay on CCRF-CEM, 34.3 µM (inactive); in the assay on EKVX, > 35.9 µM (inactive); in the assay on HCT-116, 17.6 µM (inactive); in the assay with HCT-15, 30.4 µM; in the assay with Hs-578T, 50.4 µM (inactive). Also, the GI50 in the assay with LOX IMVI is 17.6 µM (inactive); with M19-MEL, 32.1 µM (inactive); in the assay on MCF7, 25.3 µM (inactive); in the assay with MDA-MB-231 it was 26.1 µM (inactive); in the assay on MDA-MB-435 it was 29 µM (inactive); with MOLT-4, 22.9 µM (inactive). Further, the GI50 with RPMI-8226 was 17.9 µM (inactive); in the assay with RXF 393, 21.6 µM (inactive); with SF-539, 21.1 µM (inactive); in the assay on SK-MEL-2 it was 22 µM (inactive); with SK-OV-3 it was 35 µM (inactive); in the assay with SNB-75, 2.09 µM (inactive). Moreover, the GI50 was 16.3 µM (inactive) in the assay with UACC-257 and 21.5 µM (inactive) in the assay with UACC-62.
As for `C[C@H]1CC[P+](Cc2ccccc2)(c2ccccc2)C1` (stereo not given in full), the GI50 is > 100 µM (inactive) in the assay with A549; > 100 µM (inactive) with CCRF-CEM; 73.3 µM (inactive) in the assay on EKVX; > 100 µM (inactive) with HCT-116; > 100 µM in the assay on HCT-15; 71.4 µM (inactive) in the assay on LOX IMVI. The GI50 in the assay with M19-MEL is 26.8 µM (inactive); in the assay with MOLT-4 it was > 100 µM (inactive); with RPMI-8226 it was 19.5 µM (inactive); with RXF 393 it was > 100 µM (inactive); in the assay with SF-539, > 100 µM (inactive); in the assay with SK-MEL-2, > 100 µM (inactive). For the same compound, the GI50 in the assay with SK-OV-3 was > 100 µM (inactive); in the assay on SNB-75, 73.6 µM (inactive); with UACC-257, 25.7 µM (inactive); in the assay on UACC-62, 76.6 µM (inactive).
Turning to `Cn1ccnc1CCc1ccc(Cl)cc1Cl`, the GI50 is > 100 µM (inactive) in the assay on A549; > 100 µM (inactive) in the assay with CCRF-CEM; 48.8 µM (inactive) with EKVX; > 100 µM (inactive) in the assay on HCT-116; > 100 µM in the assay with HCT-15; > 100 µM (inactive) in the assay on LOX IMVI. Further, the GI50 was > 100 µM (inactive) with M19-MEL; > 100 µM (inactive) in the assay with MOLT-4; > 100 µM (inactive) in the assay with RPMI-8226; 35.4 µM (inactive) with RXF 393; > 100 µM (inactive) in the assay with SF-539; > 100 µM (inactive) in the assay on SK-MEL-2. The GI50 in the assay with SK-OV-3, in the assay with SNB-75, in the assay on UACC-257 and in the assay on UACC-62 was > 100 µM (inactive) throughout.
